Measured values as given in ChEMBL document CHEMBL5236598, “Lead Optimization and Avoidance of Metabolic-perturbing Motif Developing Novel Diarylpyrimidines as Potent HIV-1 NNRTIs” (J Med Chem, 2022).
pEC50: −log10 of the molar value.

How the values were obtained:
[1] = test system: Human immunodeficiency virus 1; test: Antiviral activity against wild type HIV-1 IIIB infected in human MT4 cells assessed as protection against virus-induced cytopathic effect incubated for 5 days by MTT assay; assay type: functional, organism-based; settings: Human immunodeficiency virus 1, IIIB, MT4, 120 h
[2] = test system: Human immunodeficiency virus 1; test: Antiviral activity against HIV-1 RES056 harboring RT K103N/Y181C double mutant infected in human MT4 cells assessed as protection against virus-induced cytopathic effect incubated for 5 days by MTT assay; assay type: functional, organism-based; settings: Human immunodeficiency virus 1, RES056, MT4, 120 h
[3] = Cytotoxicity against human MT4 cells assessed as reduction in cell viability measured after 5 days by MTT assay; assay type: toxicity, cell-based; settings: time 5 day
[4] = Selectivity index, ratio of CC50 for cytotoxicity against human MT4 cells to EC50 for antiviral activity against wild type HIV-1 IIIB infected in human MT4 cells; assay type: toxicity, cell-based; settings: read-out: Ratio CC50/EC50
[5] = Selectivity index, ratio of CC50 for cytotoxicity against human MT4 cells to EC50 for antiviral activity against HIV-1 RES056 harboring RT K103N/Y181C double mutant infected in human MT4 cells; assay type: toxicity, cell-based; settings: read-out: Ratio CC50/EC50

| Compound | pEC50 [1] | pEC50 [2] | CC50 at 120 h [3] | selectivity ratio [4] | selectivity ratio [5] |
| --- | --- | --- | --- | --- | --- |
| Cc1cc(C#N)cc(C)c1Oc1nc(NC2CCN(c3c(F)cc(N)cc3F)CC2)nc2ccsc12 | 7.43 | < 5.26 | 5.45 µM | 146 | < 1 |
| Cc1cc(-c2ccc(C#N)cc2)cc(C)c1Oc1nc(Nc2ccc(C#N)nc2)nc2ccsc12 | 8.12 | 6.42 | 214 µM | 28100 | 563 |
| Cc1cc(/C=C/C#N)cc(C)c1Oc1nc(NC2CCN(c3ccc([N+](=O)[O-])cc3F)CC2)nc2sccc12 | 7.53 | 5.87 | > 229 µM | > 7740 | > 169 |
| Cc1cc(/C=C/C#N)cc(C)c1Oc1nc(NC2CCN(c3c(F)cc([N+](=O)[O-])cc3F)CC2)nc2sccc12 | 7.17 | 4.56 | > 222 µM | > 3260 | > 8 |
| Cc1cc(/C=C/C#N)cc(C)c1Oc1nc(NC2CCN(c3ccc(N)cc3F)CC2)nc2sccc12 | 7.49 | 5.98 | 13.6 µM | 418 | 13 |
| Cc1cc(-c2ccc(F)cc2)cc(C)c1Oc1nc(Nc2ccc(C#N)c(F)c2)nc2ccsc12 | 6.16 | 5.07 | 97.3 µM | 140 | 11 |
| Cc1cc(/C=C/C#N)cc(C)c1Oc1nc(NC2CCN(c3c(F)cc([N+](=O)[O-])cc3F)CC2)nc2ccsc12 | 6.90 | 5.12 | 99.5 µM | 794 | 13 |
| Cc1cc(C#N)cc(C)c1Oc1nc(NC2CCN(c3c(F)cc(N)cc3F)CC2)nc2sccc12 | 7.49 | < 5.26 | 5.45 µM | 168 | < 1 |
| N#C/C=C/c1cc(F)c(Oc2nc(Nc3ccc(C#N)c(F)c3)nc3ccsc23)c(F)c1 | 6.96 | 5.17 | 96 µM | 878 | 14 |
| Cc1cc(C#N)cc(C)c1Oc1nc(NC2CCN(c3ccc(N)cc3)CC2)nc2sccc12 | 7.44 | 5.76 | 31 µM | 864 | 18 |
| Cc1cc(C#N)cc(C)c1Oc1nc(NC2CCN(c3c(F)cc([N+](=O)[O-])cc3F)CC2)nc2ccsc12 | 7.24 | < 4.52 | 740 µM | 12900 | < 1 |
| N#C/C=C/c1cc(F)c(Oc2nc(Nc3ccc(C#N)c(F)c3)nc3sccc23)c(F)c1 | 7.28 | < 3.93 | 117 µM | 2240 | < 1 |
| Cc1cc(C#N)cc(C)c1Oc1nc(NC2CCN(c3ccc([N+](=O)[O-])cc3F)CC2)nc2ccsc12 | 7.49 | < 4.52 | 740 µM | 23100 | < 1 |
| Cc1cc(/C=C/C#N)cc(C)c1Oc1nc(NC2CCN(c3c(F)cc(NS(N)(=O)=O)cc3F)CC2)nc2ccsc12 | 7.43 | 5.71 | 20 µM | 539 | 10 |
| Cc1cc(C#N)cc(C)c1Oc1nc(NC2CCN(c3ccc(NS(N)(=O)=O)cc3)CC2)nc2sccc12 | 7.89 | 6.20 | 24.9 µM | 1930 | 39 |
| N#C/C=C/c1cc(F)c(Oc2nc(Nc3ccc(C#N)nc3)nc3sccc23)c(F)c1 | 8.16 | 5.12 | 12.8 µM | 1840 | 1.7 |

| Compound | pEC50 [1] | pEC50 [2] | CC50 at 120 h [3] | selectivity ratio [4] | selectivity ratio [5] |
| --- | --- | --- | --- | --- | --- |
| Cc1cc(C#N)cc(C)c1Oc1nc(NC2CCN(c3ccc(NS(N)(=O)=O)cc3F)CC2)nc2ccsc12 | 7.64 | 5.31 | 24.7 µM | 1080 | 5 |
| Cc1cc(C#N)cc(C)c1Oc1nc(NC2CCN(c3c(F)cc(NS(N)(=O)=O)cc3F)CC2)nc2ccsc12 | 7.45 | 5.12 | 12.6 µM | 357 | 2 |
| Cc1cc(/C=C/C#N)cc(C)c1Oc1nc(NC2CCN(c3ccc([N+](=O)[O-])cc3F)CC2)nc2ccsc12 | 6.85 | < 4.85 | 14.2 µM | 101 | < 1 |
| Cc1cc(/C=C/C#N)cc(C)c1Oc1nc(NC2CCN(c3ccc(NS(N)(=O)=O)cc3F)CC2)nc2ccsc12 | 8.13 | 6.08 | 21.7 µM | 2910 | 26 |
| Cc1cc(/C=C/C#N)cc(C)c1Oc1nc(NC2CCN(c3ccc(N)cc3F)CC2)nc2ccsc12 | 7.50 | 6.06 | 23 µM | 735 | 26 |
| Cc1cc(-c2ccc(C#N)cc2)cc(C)c1Oc1nc(Nc2ccc(C#N)nc2)nc2sccc12 | 7.96 | 5.82 | 181 µM | 16600 | 119 |
| Cc1cc(-c2ccc(C#N)cc2)cc(C)c1Oc1nc(Nc2ccc(C#N)c(F)c2)nc2sccc12 | 7.07 | 6.31 | > 254 µM | > 3010 | > 517 |
| Cc1cc(/C=C/C#N)cc(C)c1Oc1nc(NC2CCN(c3c(F)cc(N)cc3F)CC2)nc2ccsc12 | 7.49 | 5.80 | 7.88 µM | 246 | 5 |
| Cc1cc(-c2ccc(C#N)cc2)cc(C)c1Oc1nc(Nc2ccc(C#N)c(F)c2)nc2ccsc12 | 6.15 | 5.20 | 71.5 µM | 101 | 11 |
| Cc1cc(C#N)cc(C)c1Oc1nc(NC2CCN(c3ccc(N)cc3F)CC2)nc2sccc12 | 7.68 | 5.59 | 26.9 µM | 1300 | 10 |
| Cc1cc(C#N)cc(C)c1Oc1nc(NC2CCN(c3c(F)cc([N+](=O)[O-])cc3F)CC2)nc2sccc12 | 7.35 | < 3.68 | > 233 µM | > 5170 | < 1 |
| Cc1cc(C#N)cc(C)c1Oc1nc(NC2CCN(c3ccc([N+](=O)[O-])cc3)CC2)nc2sccc12 | 7.69 | 4.27 | > 249 µM | > 12100 | > 5 |
| Cc1cc(C#N)cc(C)c1Oc1nc(NC2CCN(c3ccc([N+](=O)[O-])cc3F)CC2)nc2sccc12 | 7.40 | < 4.43 | 37.4 µM | 935 | < 1 |
| Cc1cc(C#N)cc(C)c1Oc1nc(NC2CCN(c3ccc(N)cc3F)CC2)nc2ccsc12 | 7.39 | < 4.91 | 12.1 µM | 300 | < 1 |
| Cc1cc(C#N)cc(C)c1Oc1nc(NC2CCN(c3ccc(NS(N)(=O)=O)cc3F)CC2)nc2sccc12 | 8.10 | 5.47 | 21.5 µM | 2720 | 6 |
| Cc1cc(C#N)cc(C)c1Oc1nc(NC2CCN(c3c(F)cc(NS(N)(=O)=O)cc3F)CC2)nc2sccc12 | 7.91 | < 5.40 | 3.96 µM | 322 | < 1 |
